Test results taken from US20260152779A1, “GENETICALLY ENGINEERED FUMONISIN SENSITIVE YEAST” (FFOQSI GMBH, priority 2022, published 2026).
Like-named read-outs stand apart in the source and are kept apart here.

Experiments:
[1] = system: YPH500; experiment: paper disk inhibition zone assay, wild-type strain YPH500; assay type: cell-based, Saccharomyces cerevisiae
[2] = system: brine shrimp (Artemia salina); conditions: cited from earlier work
[3] = system: YTKT33; experiment: spotting on SC-URA agar plates with FB1, strain YTKT33; assay type: cell-based, Saccharomyces cerevisiae; conditions: SC-URA agar plates, 87,88% pure FB1, empty pYes2-PTEF1 vector, 30° C., 5 days
Experimental: In a further setting, sensitive yeast strains YRU74, YRU94ML, YTKT33 and the original yeast strain YPH500 were transformed with the empty pYes2-PTEF1 vector containing the marker URA3, so that they could grow on Synthetic Complete media lacking uracil (SC-URA). They were grown in SC-URA overnight and rediluted to an OD600 of 0.1 in the morning. After reaching exponential growth (OD600>0.3), they were diluted again for spottings on plates containing 87,88% pure FB1. 3 μl of each strain/dilution was pipetted onto the plates and left to grow at 30° C. for 5 days. The photos of these plates are shown above. […] Three spots were spotted on each plate for every strain.

[4] = system: wild type yeast; experiment: growth inhibition of wild type yeast by FB1; assay type: cell-based, Saccharomyces cerevisiae; conditions: at a concentration of 1000 μM FB1 or more
Text: Growth rates and growth inhibition can be determined by any method well known in the art, such as, but not limited to, determining cell number, using e.g. a hemocytometer, determining cell viability, e.g. using methylene blue staining, or determining relative growth calculated as the resultant optical density ratio of toxin treated cultures to untreated controls. Also yeast dry weight can be determined or conductance change can be measured during yeast growth, employing direct and indirect methods.

[5] = system: YTKT33; experiment: spotting on YPD agar plates with crude FB1, strain YTKT33; assay type: cell-based, Saccharomyces cerevisiae; conditions: crude fumonisin stock (FB1+FB2+FB3) containing >70% FB1, 30° C., 5 days
Experimental: (§1) In a further setting, the sensitive yeast strains YRU74, YRU94ML and YTKT33 were grown in YPD (1% yeast extract, 2% peptone, 2% glucose) overnight alongside the original resistant YPH500 strain. The next day, they were rediluted to an OD600 of 0.1. After reaching exponential growth (>0.3) they were diluted to an OD of 0.1 and diluted further (1:10 and 1:100) for spottings on YPD agar plates alongside containing different concentrations of the crude fumonisin stock (FB1+FB2+FB3, measured via LC-MS/MS) containing >70% FB1. The concentrations used for the prepared FB1 plates were calculated based on the measured FB1. 3 μl of each strain/dilution was pipetted onto the plates and left to grow at 30° C. for 5 days. The photos of these plates are shown above. […] Three different dilutions of each strain were spotted on every plate. […] Both YRU94ML and YTKT33 growth is inhibited at a concentration of 250 μM FB1.

[6] = system: primary rat hepatocytes; conditions: read-out: acute cytotoxicity (IC50 values); cited from earlier work
[7] = system: Arabidopsis; conditions: bioassay e.g. 10 days; cited from earlier work
[8] = system: human HepG2 cells; conditions: read-out: acute cytotoxicity (IC50); cited from earlier work
[9] = system: YRU94ML; experiment: spotting on YPD agar plates with crude FB1, strain YRU94ML; assay type: cell-based, Saccharomyces cerevisiae; conditions: crude fumonisin stock (FB1+FB2+FB3) containing >70% FB1, 30° C., 5 days
Experimental: as §1

[10] = system: YTKT33; experiment: FB1 resistance conferred by candidate genes expressed in YTKT33 on SC-URA FB1 plates; assay type: cell-based, Saccharomyces cerevisiae; conditions: SC-URA plates with different FB1 concentrations, spottings OD600 0.1, 0.01, 0.001
Text: The plasmids described by Janevska et al., 2020, were kindly provided by Dr. Vito Valiante. Plasmid pYes2-PTEF1 (=empty vector, TEF1 promoter) was used to express different genes assumed to confer resistance against FB1. Candidate genes were coned behind the TEF1 promoter into that plasmid and subsequently transformed into the sensitive yeast strain YTKT33 for testing.
YOR1 (with endogenous promoter on an episomal (multicopy 2 μm) plasmid) and FvCER1 (positive control, resistance conferring ceramide synthase from Fusarium verticillioides) were used as controls. Sphingopyxis sp.

With fumonisin the “development of an inhibition zone” value [1] was “did not result in the development of an inhibition zone”.

For Fumonisin B1 [FB1], the IC50 ([2]; 24 h incubation) is listed as about 10 µM, the IC50 ([2]; 48 h incubation) is listed as 1.7 µM and the “FB1 concentration at which growth is inhibited” value [3] is listed as about 100 µM. For the same molecule, the “growth inhibition of wild type yeast” value [4] was “does not show significant growth inhibition”, the “FB1 concentration at which growth is inhibited” value [5] was 250 µM and the IC50 [6] was 2000 µM. For the same molecule, the “FB1 concentration at which seed germination and root development is already strongly inhibited” value [7] was 1 µM, the IC50 [8] was 399 µM and the “FB1 concentration at which growth is inhibited” value [9] was 250 µM.

B1: YOR1: yeast ABC transporter gene with endogenous promoter on an episomal multicopy plasmid, used as control (protein, UniProt P53049 1-1477, looked up)
Oligomycin resistance …: MTITVGDAVSETELENKSQNVVLSPKASASSDISTDVDKDTSSSWDDKSLLPTGEYIVDRNKPQTYLNSDDIEKVTESDIFPQKRLFSFLHSKKIPEVPQTDDERKIYPLFHTNIISNMFFWWVLPILRVGYKRTIQPNDLFKMDPRMSIETLYDDFEKNMIYYFEKTRKKYRKRHPEATEEEVMENAKLPKHTVLRALLFTFKKQYFMSIVFAILANCTSGFNPMITKRLIEFVEEKAIFHSMHVNKGIGYAIGACLMMFVNGLTFNHFFHTSQLTGVQAKSILTKAAMKKMFNASNYARHCFPNGKVTSFVTTDLARIEFALSFQPFLAGFPAILAICIVLLIVNLGPIALVGIGIFFGGFFISLFAFKLILGFRIAANIFTDARVTMMREVLNNIKMIKYYTWEDAYEKNIQDIRTKEISKVRKMQLSRNFLIAMAMSLPSIASLVTFLAMYKVNKGGRQPGNIFASLSLFQVLSLQMFFLPIAIGTGIDMIIGLGRLQSLLEAPEDDPNQMIEMKPSPGFDPKLALKMTHCSFEWEDYELNDAIEEAKGEAKDEGKKNKKKRKDTWGKPSASTNKAKRLDNMLKDRDGPEDLEKTSFRGFKDLNFDIKKGEFIMITGPIGTGKSSLLNAMAGSMRKTDGKVEVNGDLLMCGYPWIQNASVRDNIIFGSPFNKEKYDEVVRVCSLKADLDILPAGDMTEIGERGITLSGGQKARINLARSVYKKKDIYLFDDVLSAVDSRVGKHIMDECLTGMLANKTRILATHQLSLIERASRVIVLGTDGQVDIGTVDELKARNQTLINLLQFSSQNSEKEDEEQEAVVAGELGQLKYESEVKELTELKKKATEMSQTANSGKIVADGHTSSKEERAVNSISLKIYREYIKAAVGKWGFIALPLYAILVVGTTFCSLFSSVWLSYWTENKFKNRPPSFYMGLYSFFVFAAFIFMNGQFTILCAMGIMASKWLNLRAVKRILHTPMSYIDTTPLGRILNRFTKDTDSLDNELTESLRLMTSQFANIVGVCVMCIVYLPWFAIAIPFLLVIFVLIADHYQSSGREIKRLEAVQRSFVYNNLNEVLGGMDTIKAYRSQERFLAKSDFLINKMNEAGYLVVVLQRWVGIFLDMVAIAFALIITLLCVTRAFPISAASVGVLLTYVLQLPGLLNTILRAMTQTENDMNSAERLVTYATELPLEASYRKPEMTPPESWPSMGEIIFENVDFAYRPGLPIVLKNLNLNIKSGEKIGICGRTGAGKSTIMSALYRLNELTAGKILIDNVDISQLGLFDLRRKLAIIPQDPVLFRGTIRKNLDPFNERTDDELWDALVRGGAIAKDDLPEVKLQKPDENGTHGKMHKFHLDQAVEEEGSNFSLGERQLLALTRALVRQSKILILDEATSSVDYETDGKIQTRIVEEFGDCTILCIAHRLKTIVNYDRILVLEKGEVAEFDTPWTLFSQEDSIFRSMCSRSGIVENDFENRS
For B1, the “resistance to FB1 conferred by the expressed gene” value [10] was “weak resistance”.
